Measured values from patent US8193372B2, “Phosphothiophene and phosphothiazole HCV polymerase inhibitors” (Idenix Pharmaceuticals, Inc., priority 2009, dated 2012).
pEC50, pIC50: −log10 of the molar value.

Columns and labels:
[1] = system: HCV Con1 subgenomic replicon of genotype 1b (GS4.1 cells); experiment: microbe, parasite or virus in culture; type: cell-based, HCV genotype 1b; settings: Hepatitis C virus; for pEC50: 72 h
[2] = in vitro; settings: human
[3] = system: Huh-7-derived cell line (Zluc) that harbors an HCV genotype 1b replicon and a luciferase reporter gene; experiment: microbe, parasite or virus in culture; type: cell-based; settings: Hepatitis C virus, 72 h
[4] = system: Huh-7-derived cell line (Zluc) that harbors an HCV genotype 1b replicon and a luciferase reporter gene; experiment: microbe, parasite or virus in culture; type: cell-based; settings: Hepatitis C virus, 72 h; remark: listed apart in the source

Structure (SMILES) | pIC50 [1] | pEC50 [1] | CC50 [2] [µM] | pEC50 [3] | pEC50 [4]
COP(=O)(Nc1cc(-c2ccc(-c3cc4ncccc4o3)cc2)sc1C(=O)O)c1ccc(C)cc1C (stereo not shown) [Compound 152] | > 7.00 | > 7.00 | > 8.3 | > 7.00 | > 7.00
COP(=O)(Nc1cc(-c2ccc(-c3cc4ccccc4s3)cc2)sc1C(=O)O)c1ccc(C)cc1C (stereo not shown) [Compound 153] | > 7.00 | > 7.00 | > 8.3 | 5.08 to 7.00 | > 7.00
COP(=O)(Nc1cc(-c2ccc(Cl)cc2)sc1C(=O)O)c1ccc(C)cc1C (stereo not shown) [Compound 155] | > 7.00 | 5.08 to 7.00 | > 8.3 | < 5.08 | 5.08 to 7.00
COP(=O)(Nc1cc(-c2ccc(C(C)(C)C)cc2)sc1C(=O)O)c1ccc(C)cc1C (stereo not shown) [Compound 156] | 5.08 to 7.00 | 5.08 to 7.00 | > 8.3 | < 5.08 | 5.08 to 7.00
CCOP(=O)(Nc1cc(-c2ccc(-c3cc4ncccc4o3)cc2)sc1C(=O)O)c1ccc(Cl)cc1F (stereo not shown) [Compound 160] | > 7.00 | > 7.00 | > 8.3 | 5.08 to 7.00 | > 7.00
